Test results as given in patent US9611249B2, “1H-indazole-3-carboxamide compounds as glycogen synthase kinase 3 beta inhibitors” (AZIENDE CHIMICHE RIUNITE ANGELINI FRANCESCO A.C.R.A.F. …, priority 2012, dated 2017).

Molecular target: human GSK-3β (Homo sapiens (Human), UniProt P49841)
Assay: Activity on human GSK-3β, LANCE substrate phosphorylation assay
Type: biochemical
Settings: compounds 1 to 15, LANCE assay, five concentrations 100 μM to 10 nM
Description: Activity on human GSK-3β was assessed using the following methods (according to Meijer et al., Chem. Biol., 2003-10:1255-1266).
In a first screening assay, compounds were tested in duplicate at a concentration of 10 μM.
Human recombinant enzyme GSK-3β was incubated for 90 minutes at 22° C. in the presence of compounds or vehicle in a reaction buffer containing ATP plus 100 nM unphosphorylated specific substrate peptide (Ulight-[…] K-amide). Substrate phosphorylation was measured by LANCE technology (PerkinElmer, Conn., USA).
In a second assay, the same compounds were assayed at five concentrations ranging from 100 μM to 10 nM with ten-fold dilutions in duplicate.
The IC50 values (concentration causing a half maximal inhibition of control specific activity), reported in table 4, were determined by non-linear regression analysis of the inhibition curves generated with mean replicate values using Hill equation curve fitting.

Chain of human GSK-3β (P49841 whole entry): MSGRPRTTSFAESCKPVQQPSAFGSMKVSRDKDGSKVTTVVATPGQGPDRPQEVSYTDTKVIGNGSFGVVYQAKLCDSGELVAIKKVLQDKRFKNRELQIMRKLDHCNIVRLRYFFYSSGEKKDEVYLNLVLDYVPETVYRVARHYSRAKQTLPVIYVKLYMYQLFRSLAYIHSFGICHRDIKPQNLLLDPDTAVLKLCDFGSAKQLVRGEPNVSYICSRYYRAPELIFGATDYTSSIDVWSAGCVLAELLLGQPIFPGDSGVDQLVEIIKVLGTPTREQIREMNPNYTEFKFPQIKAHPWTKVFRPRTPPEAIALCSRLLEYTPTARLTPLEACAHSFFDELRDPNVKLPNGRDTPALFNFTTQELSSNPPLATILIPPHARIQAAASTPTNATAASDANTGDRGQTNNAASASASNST

SMILES | IC50
COCCN1CCC(CNC(=O)c2n[nH]c3ccc(-c4ccc(C)cc4)cc23)CC1 [Compound 13, N-{[1-(2-methoxyethyl)piperidin-4-yl]methyl}-5-(4-methylphenyl)-1H-indazole-3-carboxamide] | 560 nM
COCCN1CCC(CNC(=O)c2n[nH]c3ccc(-c4cccnc4OC)cc23)CC1 [Compound 14, N-{[1-(2-methoxyethyl)piperidin-4-yl]methyl}-5-(2-methoxypyridin-3-yl)-1H-indazole-3-carboxamide] | 1400 nM
